Numbers after ± are expanded uncertainties.
Assay: xn = mol fraction of the nth substance listed
Details: 298.15 K, 101 kPa, Liquid; for speed of sound: Linear variable-path acoustic interferometer; for mass density: Vibrating tube method

Cc1ccccc1[N+](=O)[O-] [2-nitrotoluene] + C1CCOC1
Details | mass density [kg/m3] | speed of sound [m/s]
x2 = 0 | 1155.24 ± 1.2 | 2112 ± 3
x2 = 0.1021 | 1135.24 ± 1.1 | 2120 ± 3
x2 = 0.2146 | 1111.7 ± 1.1 | 2034 ± 3
x2 = 0.3019 | 1092.19 ± 1.1 | 1939 ± 3
x2 = 0.4211 | 1063.58 ± 1 | 1791 ± 3
x2 = 0.4509 | 1056.04 ± 0.99 | 1754 ± 3
x2 = 0.521 | 1037.67 ± 0.96 | 1677 ± 3
x2 = 0.6045 | 1014.59 ± 0.92 | 1593 ± 3
x2 = 0.7211 | 979.81 ± 0.87 | 1495 ± 3
x2 = 0.8014 | 953.93 ± 0.86 | 1433 ± 3
x2 = 0.9324 | 907.94 ± 0.82 | 1325 ± 3

Cc1cccc(Cl)c1 [3-chlorotoluene] + C1CCOC1
Details | mass density [kg/m3] | speed of sound [m/s]
x2 = 0 | 1066.01 ± 0.98 | 1279 ± 3
x2 = 0.0662 | 1055.82 ± 0.97 | 1293 ± 3
x2 = 0.1944 | 1036.15 ± 0.93 | 1313 ± 3
x2 = 0.2787 | 1022.98 ± 0.9 | 1319 ± 3
x2 = 0.3891 | 1004.96 ± 0.87 | 1324 ± 3
x2 = 0.5228 | 981.71 ± 0.84 | 1325 ± 3
x2 = 0.6399 | 960.03 ± 0.82 | 1320 ± 3
x2 = 0.7368 | 941.06 ± 0.8 | 1313 ± 3
x2 = 0.7972 | 928.35 ± 0.79 | 1307 ± 3
x2 = 0.8601 | 914.63 ± 0.77 | 1300 ± 3
x2 = 0.9208 | 900.75 ± 0.76 | 1290 ± 3
x2 = 0.945 | 895.28 ± 0.76 | 1287 ± 3
x2 = 0.9739 | 888.4 ± 0.75 | 1282 ± 3

Cc1cccc([N+](=O)[O-])c1 [3-nitrotoluene] + C1CCOC1
Details | mass density [kg/m3] | speed of sound [m/s]
x2 = 0 | 1149.67 ± 1.2 | 2100 ± 3
x2 = 0.0914 | 1132.22 ± 1.1 | 2093 ± 3
x2 = 0.1522 | 1120.11 ± 1.1 | 2029 ± 3
x2 = 0.2026 | 1109.64 ± 1.1 | 1969 ± 3
x2 = 0.3146 | 1085.13 ± 1 | 1847 ± 3
x2 = 0.4209 | 1060.02 ± 0.99 | 1719 ± 3
x2 = 0.5476 | 1027.61 ± 0.93 | 1588 ± 3
x2 = 0.6024 | 1012.66 ± 0.91 | 1542 ± 3
x2 = 0.7519 | 968.47 ± 0.86 | 1438 ± 3
x2 = 0.8415 | 939.33 ± 0.84 | 1380 ± 3
x2 = 0.9324 | 907.47 ± 0.82 | 1321 ± 3

Cc1ccc(Cl)cc1 [4-chlorotoluene] + C1CCOC1
Details | mass density [kg/m3] | speed of sound [m/s]
x2 = 0 | 1064.21 ± 0.97 | 1296 ± 3
x2 = 0.0653 | 1054.92 ± 0.96 | 1305 ± 3
x2 = 0.168 | 1040.16 ± 0.93 | 1308 ± 3
x2 = 0.3251 | 1015.77 ± 0.89 | 1308 ± 3
x2 = 0.4558 | 994.13 ± 0.85 | 1304 ± 3
x2 = 0.5489 | 977.7 ± 0.83 | 1301 ± 3
x2 = 0.6335 | 962.01 ± 0.82 | 1296 ± 3
x2 = 0.7021 | 948.73 ± 0.8 | 1293 ± 3
x2 = 0.7609 | 936.9 ± 0.79 | 1288 ± 3
x2 = 0.8226 | 923.96 ± 0.78 | 1284 ± 3
x2 = 0.906 | 905.08 ± 0.77 | 1280 ± 3
x2 = 0.941 | 896.99 ± 0.76 | 1277 ± 3

C1CCOC1 [tetrahydrofuran] + Cc1ccc(Cl)cc1
x1 = 1
Details | mass density [kg/m3] | speed of sound [m/s]
– | 882.09 ± 0.71 | 1270 ± 3

C1CCOC1 [tetrahydrofuran] + Cc1cccc(Cl)c1
x1 = 1
Details | mass density [kg/m3] | speed of sound [m/s]
– | 882.09 ± 0.71 | 1270 ± 3

C1CCOC1 [tetrahydrofuran] + Cc1cccc([N+](=O)[O-])c1
x1 = 1
Details | mass density [kg/m3] | speed of sound [m/s]
– | 882.09 ± 0.71 | 1270 ± 3

C1CCOC1 [tetrahydrofuran] + Cc1ccccc1Cl
x1 = 1
Details | mass density [kg/m3] | speed of sound [m/s]
– | 882.09 ± 0.71 | 1270 ± 3

C1CCOC1 [tetrahydrofuran] + Cc1ccccc1[N+](=O)[O-]
x1 = 1
Details | mass density [kg/m3] | speed of sound [m/s]
– | 882.09 ± 0.71 | 1270 ± 3

C1CCOC1 [tetrahydrofuran] + Clc1ccc(Cl)c(Cl)c1
x1 = 1
Details | mass density [kg/m3] | speed of sound [m/s]
– | 882.09 ± 0.71 | 1270 ± 3

C1CCOC1 [tetrahydrofuran] + Clc1cccc(Cl)c1
x1 = 1
Details | mass density [kg/m3] | speed of sound [m/s]
– | 882.09 ± 0.71 | 1270 ± 3

C1CCOC1 [tetrahydrofuran] + Clc1ccccc1Cl
x1 = 1
Details | mass density [kg/m3] | speed of sound [m/s]
– | 882.09 ± 0.71 | 1270 ± 3
